Measurements taken from patent US20250161408A1, “PEPTIDIC INHIBITORS OF AMYLOID SELF- AND CROSS-ASSEMBLY” (TECHNISCHE UNIVERSITÄT MÜNCHEN, priority 2022, published 2025).
Entries after “also recorded” stand apart in the source; their conditions may differ. Non-standard residues stand in square brackets, D forms with d. Residues, ends and D or L forms follow the SMILES beside them. No end group written: not given here. NMeF = CN[C@@H](Cc1ccccc1)C(=O)O; NMeL = CN[C@@H](CC(C)C)C(=O)O; NMeV = CN[C@H](C(=O)O)C(C)C; Nle = CCCC[C@H](N)C(=O)O

What was measured:
[1] = molecular target: T1, Aβ42 (Homo sapiens, UniProt P05067); assay: cell-based; details: read-out: IC50 (±SD) of inhibitory effects of ACMs on Aβ42-mediated cell damage
T1 construct: the 40(42)-residue peptide Aβ40(42); made in house; host or cells: chemical synthesis (Fmoc-SPPS), monomer isolated by SEC
Protocol: Following incubation with the cells for ˜20 h (37° C., humidified atmosphere, 5% CO2), cell damage was assessed by measuring cellular MTT reduction.
Solutions were aged for 1.5 h (37° C., shaking 500 rpm). Aliquots were diluted with cell medium, incubated with PC12 cells at the indicated final concentrations for ˜20 h and cellular MTT reduction was measured as above.

[2] = molecular target: T2, IAPP (Homo sapiens, UniProt P10997); assay: MTT reduction assay of IAPP-mediated cell damage in RIN5fm cells; format: cell-based; details: for Effect on formation of cytotoxic IAPP assemblies (MTT reduction): aged (24 h or 7 days) IAPP/peptide 1/2 solutions; for IC50: read-out: IC50 (±SD) of inhibitory effects of ACMs on IAPP-mediated cell damage
T2 construct: made in house; host or cells: chemical synthesis (Fmoc-SPPS), air-oxidised, RP-HPLC purified
T2 sequence (P10997 34-70 limits assumed): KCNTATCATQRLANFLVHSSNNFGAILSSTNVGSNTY
Protocol: Briefly, cells were cultivated and platted in 96-well plates. Aliquots of solutions used for the ThT binding assays (see “ThT binding assays”) were diluted with cell medium at the indicated incubation time points (24 h or 7 days) and added to the cells at the indicated final concentrations. Following incubation with the cells for ˜20 h (37° C., humidified atmosphere, 5% CO2) cell damage was assessed by measuring cellular MTI reduction. IC50 values were determined.

[3] = tested on: Aβ42-mediated LTP impairment; assay: Hippocampal long-term potentiation (LTP) measurements in murine hippocampal slices ex vivo; set-up: species or system mouse; details: Aβ42 oligomers 50 nM, 24 h aged, 30° C.; oligomers/ACM 1/10
Protocol: LTP measurements were performed. Briefly, sagittal hippocampal slices (350 μm) were obtained from C57BL/6N male mice (6-8 weeks) in ice-cold Ringer solution bubbled with a mixture of 95% O2 and 5% CO2 and according to protocols approved by the ethical committee on animal care and use of the government of Bavaria Germany. Extracellular recordings were performed using artificial cerebrospinal fluid (ACSF)-filled glass microelectrodes (2-3 MW) at RT. […] Field excitatory postsynaptic potentials (fEPSPs) were evoked in the hippocampal CA1 dendritic region via two independent inputs by stimulating the Schaffer collateral commissural pathway (Scep). For LTP induction, high-frequency stimulation (HFS; 100 Hz/100 pulses) conditioning pulses were delivered to the same Seep inputs. Both stimulating electrodes were used to utilize the input specificity of LTP, thus allowing for the measurement of an internal control within the same slice. […] Responses were measured for 60 min after HFS. […] Data analysis by 1-way ANOVA and Bonferroni's multiple comparison test.

[4] = molecular target: T1, Aβ42; assay: ThT binding assay of Aβ42 fibrillogenesis (self-assembly, seeding, cross-seeding); format: biochemical; details: Aβ42 5 μM, Aβ42/peptide 1/1
Protocol: Aβ42 fibrillogenesis-related studies. […] Peptide incubations were performed in the presence of ThT in 96-well black MTPs (FluoroNunc, Thermo Fisher Scientific). […] Values of seeds or buffer alone were subtracted from the data in self-/cross-seeding assays; all other data shown are raw data except for data in FIG. 27b which were normalized).
Incubations (37° C.) and determination of ThT fluorescence were performed as for all other Aβ42-related studies.

[5] = tested on: cultured murine BV2 microglia; assay: Phagocytosis of Aβ42 species with or without ACM; format: cell-based, mouse; details: 1/1, co-incubation 2 h
Protocol: Briefly, BV2 cells were maintained in GlutaMAX-supplemented RPMI1640 medium containing 10% FBS and 1% penicillin/streptomycin on poly-L-ornithine-coated flasks. For the phagocytosis assay, BV2 cells were seeded into 24-well plates containing coverslips in serum-free RPMI1640-GlutaMAX and further incubated for 24 h (5% CO2, 37° C.) to reach 10000 cells/well. Primary BMDMs were obtained from bone-marrow monocytes isolated from wildtype C57BL/6 mice, plated in 24-well plates at a density of 10000cells/well, and differentiated with L929 cell-conditioned medium (RPMI1640, 10% FBS, 1% penicillin/streptomycin) for 7 days. Thereafter, cells were incubated with aged peptide solutions at 37° C. for 6 h. […]
Following incubation of the cells with the peptides, supernatants were removed and cells on the coverslips were washed 5 times with ice-cold 1×PBS, fixed with 4% paraformaldehyde, washed with 1×PBS, permeabilized with 0.2% Triton-X 100, and rinsed three times with cold 1×PBS. […] Images were acquired using a Leica DMi8 fluorescence microscope. The percentage of cells that had taken up peptides was calculated by dividing the number of BV2 cells or BMDMs that phagocytosed TAMRA-labeled peptide by the total cell count, multiplied by 100. Significance was analyzed by unpaired student's t-test.

Molecule | IC50 [1] [nM] | Effect of addition to preformed fIAPP on fIAPP cytotoxicity (MTT reduction) ([2]; RIN5fm cells, ACM 33 μM added to fIAPP […], 1 day, fIAPP 500 nM) | Effect on formation of cytotoxic IAPP assemblies (MTT reduction) ([2]; RIN5fm cells) | IC50 [2] [nM] | Effect on LTP impairment mediated by preformed Aβ42 oligomers [3] | Effect on Aβ42 fibrillogenesis / amyloid self-assembly (ThT binding) [4] | Effect of addition to TAMRA-oAβ42 on Aβ42 phagocytosis [5]
CCCC[C@H](NC(=O)[C@H](CC(C)C)NC(=O)CNC(=O)[C@@H](NC(=O)[C@@H](NC(=O)[C@H](C)NC(=O)CNC(=O)[C@H](CCCCN)NC(=O)[C@H](CC(N)=O)NC(=O)[C@H](Cc1ccccc1)NC(=O)[C@H](Cc1ccccc1)NC(=O)[C@H](Cc1ccccc1)NC(=O)[C@H](CC(=O)O)NC(=O)[C@H](CCC(=O)O)NC(=O)[C@H](C)NC(=O)[C@H](Cc1ccccc1)N(C)C(=O)[C@H](Cc1ccccc1)NC(=O)[C@H](C(C)C)N(C)C(=O)[C@H](CC(C)C)NC(=O)[C@H](CCCCN)NC(=O)[C@@H](N)CCC(N)=O)[C@@H](C)CC)[C@@H](C)CC)C(=O)N[C@H](C(=O)NCC(=O)NCC(=O)N[C@H](C(=O)N[C@H](C(=O)O)C(C)C)C(C)C)C(C)C [F3-VF] (H-QKL[NMeV]F[NMeF]AEDFFFNKGAIIGL[Nle]VGGVV-OH) | 1030 | does not affect fIAPP cytotoxicity | fully suppressed; also recorded: suppress formation of toxic IAPP assemblies | 78.5 | – | – | –
CCCC[C@H](NC(=O)[C@H](CC(C)C)NC(=O)CNC(=O)[C@@H](NC(=O)[C@@H](NC(=O)[C@H](C)NC(=O)CNC(=O)[C@H](CCCCN)NC(=O)[C@H](CC(N)=O)NC(=O)[C@H](Cc1ccccc1)NC(=O)[C@H](Cc1ccccc1)NC(=O)[C@H](Cc1ccccc1)NC(=O)[C@H](CC(=O)O)NC(=O)[C@H](CCC(=O)O)NC(=O)[C@H](C)NC(=O)[C@H](Cc1ccccc1)NC(=O)[C@H](Cc1ccccc1)N(C)C(=O)[C@@H](NC(=O)[C@H](CC(C)C)N(C)C(=O)[C@H](CCCCN)NC(=O)[C@@H](N)CCC(N)=O)C(C)C)[C@@H](C)CC)[C@@H](C)CC)C(=O)N[C@H](C(=O)NCC(=O)NCC(=O)N[C@H](C(=O)N[C@H](C(=O)O)C(C)C)C(C)C)C(C)C [F3-LF] (H-QK[NMeL]V[NMeF]FAEDFFFNKGAIIGL[Nle]VGGVV-OH) | 262 | – | fully suppressed; also recorded: suppress formation of toxic IAPP assemblies | 41.7 | suppress LTP impairment mediated by preformed Aβ42 oligomers | – | –
CCCC[C@H](NC(=O)[C@H](CC(=O)O)NC(=O)[C@H](CCC(=O)O)NC(=O)[C@H](C)NC(=O)[C@H](Cc1ccccc1)NC(=O)[C@H](Cc1ccccc1)N(C)C(=O)[C@@H](NC(=O)[C@H](CC(C)C)N(C)C(=O)[C@H](CCCCN)NC(=O)[C@@H](N)CCC(N)=O)C(C)C)C(=O)N[C@@H](CCCC)C(=O)N[C@@H](CCCC)C(=O)N[C@@H](CC(N)=O)C(=O)N[C@@H](CCCCN)C(=O)NCC(=O)N[C@@H](C)C(=O)N[C@H](C(=O)N[C@H](C(=O)NCC(=O)N[C@@H](CC(C)C)C(=O)N[C@@H](CCCC)C(=O)N[C@H](C(=O)NCC(=O)NCC(=O)N[C@H](C(=O)N[C@H](C(=O)O)C(C)C)C(C)C)C(C)C)[C@@H](C)CC)[C@@H](C)CC [Nle3-LF] (H-QK[NMeL]V[NMeF]FAED[Nle][Nle][Nle]NKGAIIGL[Nle]VGGVV-OH) | – | – | fully suppressed; also recorded: suppress formation of toxic IAPP assemblies | 82.1 | – | – | –
Nle3-LVFF: 4-fold N-methylated Nle3-VF analog; N-methylation of all four residues of segment LVFF (QK[NMeL][NMeV][NMeF][NMeF]AED[Nle][Nle][Nle]NKGAIIGL[Nle]VGGVV) | – | – | – | – | – | blocks amyloid self-assembly of Aβ42 | –
CCCC[C@H](NC(=O)[C@H](CC(C)C)NC(=O)CNC(=O)[C@@H](NC(=O)[C@@H](NC(=O)[C@H](C)NC(=O)CNC(=O)[C@H](CCCCN)NC(=O)[C@H](CC(N)=O)NC(=O)[C@H](CC(C)C)NC(=O)[C@H](CC(C)C)NC(=O)[C@H](CC(C)C)NC(=O)[C@H](CC(=O)O)NC(=O)[C@H](CCC(=O)O)NC(=O)[C@H](C)NC(=O)[C@H](Cc1ccccc1)N(C)C(=O)[C@H](Cc1ccccc1)NC(=O)[C@H](C(C)C)N(C)C(=O)[C@H](CC(C)C)NC(=O)[C@H](CCCCN)NC(=O)[C@@H](N)CCC(N)=O)[C@@H](C)CC)[C@@H](C)CC)C(=O)N[C@H](C(=O)NCC(=O)NCC(=O)N[C@H](C(=O)N[C@H](C(=O)O)C(C)C)C(C)C)C(C)C [L3-VF] (H-QKL[NMeV]F[NMeF]AEDLLLNKGAIIGL[Nle]VGGVV-OH) | 261 | – | fully suppressed; also recorded: suppress formation of toxic IAPP assemblies | 113 | suppress LTP impairment mediated by preformed Aβ42 oligomers | – | increased Aβ42 phagocytosis
CCCC[C@H](NC(=O)[C@H](CC(C)C)NC(=O)CNC(=O)[C@@H](NC(=O)[C@@H](NC(=O)[C@H](C)NC(=O)CNC(=O)[C@H](CCCCN)NC(=O)[C@H](CC(N)=O)NC(=O)[C@H](CC(C)C)NC(=O)[C@H](CC(C)C)NC(=O)[C@H](CC(C)C)NC(=O)[C@H](CC(=O)O)NC(=O)[C@H](CCC(=O)O)NC(=O)[C@H](C)NC(=O)[C@H](Cc1ccccc1)NC(=O)[C@H](Cc1ccccc1)N(C)C(=O)[C@@H](NC(=O)[C@H](CC(C)C)N(C)C(=O)[C@H](CCCCN)NC(=O)[C@@H](N)CCC(N)=O)C(C)C)[C@@H](C)CC)[C@@H](C)CC)C(=O)N[C@H](C(=O)NCC(=O)NCC(=O)N[C@H](C(=O)N[C@H](C(=O)O)C(C)C)C(C)C)C(C)C [L3-LF] (H-QK[NMeL]V[NMeF]FAEDLLLNKGAIIGL[Nle]VGGVV-OH) | – | – | fully suppressed; also recorded: suppress formation of toxic IAPP assemblies | 133 | – | – | –
